Assay results from ChEMBL document CHEMBL1157811, “Synthesis, anticoagulant and PIVKA-II induced by new 4-hydroxycoumarin derivatives” (Bioorg Med Chem, 2010).
Activity calls are given as the source filed them. The rule behind the calls is not given here.

What was measured:
Mus musculus [1] = test: Ex vivo anticoagulant activity in albino mouse assessed as prothrombin time at 150 mg/kg, po administered daily for 3 successive days measured after 24 hrs of last dose; type: functional
HepG2 [2] = test: Anticoagulant activity in human HepG2 cells assessed as accumulation of des-gamma carboxyprothrombin at 3.33 uM after 24 hrs by ELISA relative to warfarin; type: functional
HepG2 [3] = test: Anticoagulant activity in human HepG2 cells assessed as accumulation of des-gamma carboxyprothrombin at 1.1 uM after 24 hrs by ELISA relative to warfarin; type: functional, cell-based
Mus musculus [4] = test: Ex vivo anticoagulant activity in albino mouse assessed as blood clotting time at 150 mg/kg, po administered daily for 3 successive days measured after 24 hrs of last dose; type: functional
HepG2 [5] = test: Anticoagulant activity in human HepG2 cells assessed as accumulation of des-gamma carboxyprothrombin at 3.3 uM after 24 hrs by ELISA; type: functional, cell-based
HepG2 [6] = test: Anticoagulant activity in human HepG2 cells assessed as accumulation of des-gamma carboxyprothrombin at 30 uM after 24 hrs by ELISA; type: functional, cell-based
HepG2 [7] = test: Anticoagulant activity in human HepG2 cells assessed as accumulation of des-gamma carboxyprothrombin at 10 uM after 24 hrs by ELISA relative to warfarin; type: functional
HepG2 [8] = test: Anticoagulant activity in human HepG2 cells assessed as accumulation of des-gamma carboxyprothrombin at 30 uM after 24 hrs by ELISA relative to warfarin; type: functional
[9] = Toxicity in po dosed albino mouse assessed as mortality administered daily for 3 successive days; type: organism-based; conditions: in vivo
HepG2 [10] = test: Anticoagulant activity in human HepG2 cells assessed as accumulation of des-gamma carboxyprothrombin after 24 hrs by ELISA; type: functional, cell-based

SMILES	Time (Mus musculus [1]) [min]	Time (Mus musculus [4]) [s]	Activity (HepG2 [6])	Activity (HepG2 [7])	Activity (HepG2 [8]) [%]	also measured
CC(=O)N1N=C(c2c(O)c3ccccc3oc2=O)CC1c1cccnc1 (stereo not given)	3.373	20.83				Activity (HepG2 [2]): 11.45%; Activity (HepG2 [3]): inactive
COc1cc(C2CC(c3c(O)c4ccccc4oc3=O)=NN2C(=S)Nc2ccccc2)cc(OC)c1OC (stereo not given)						Activity (HepG2 [5]): inactive
O=c1oc2ccccc2c(O)c1C1=NNC(c2cccnc2)C1 (stereo not given)	0.53	17.67	inactive			
N#Cc1c(-c2ccco2)cc(-c2c(O)c3ccccc3oc2=O)[nH]c1=O				10%	8.8	
NC(=S)N1N=C(c2c(O)c3ccccc3oc2=O)CC1c1cccnc1 (stereo not given)	4.017	16.67	Active	9.1%	11.2	
COc1ccc(C2CC(c3c(O)c4ccccc4oc3=O)=NN2C(=S)Nc2ccccc2)cc1 (stereo not given)			inactive			
COc1cc(C2CC(c3c(O)c4ccccc4oc3=O)=NC(S)=N2)cc(OC)c1OC (stereo not given)	0.173	15.83	Active	5.2%	13	
COc1cc(C2CC(c3c(O)c4ccccc4oc3=O)=NN2c2ccccc2)cc(OC)c1OC (stereo not given)						Activity (HepG2 [5]): inactive
O=c1oc2ccccc2c(O)c1C1=NN(c2ccccc2)C(c2cccnc2)C1 (stereo not given)	0.827	22.5		8.4%	8.7	LD50 at 3 days [9]: 1790 mg/kg
COc1cc(-c2cc(-c3c(O)c4ccccc4oc3=O)nc(N)c2C#N)cc(OC)c1OC	0.193	9.5				
CC(=O)CC(c1ccccc1)c1c(O)c2ccccc2oc1=O (stereo not given) [WARFARIN]	4.445	18.17				Activity (HepG2 [10]): Dose-dependent effect; LD50 at 3 days [9]: 760 mg/kg
COc1ccc(C2CC(c3c(O)c4ccccc4oc3=O)=NN2)cc1 (stereo not given)			Active	17.76%	17.3	
COc1cc(C2CC(c3c(O)c4ccccc4oc3=O)=NN2)cc(OC)c1OC (stereo not given)			inactive			
O=c1oc2ccccc2c(O)c1C1=NC(S)=NC(c2cccnc2)C1 (stereo not given)				inactive	8	
O=c1oc2ccccc2c(O)c1C1=NN(C(=S)Nc2ccccc2)C(c2cccnc2)C1 (stereo not given)	3.505	12.17	Active	19.3%	19.4	
N#Cc1c(-c2cccnc2)cc(-c2c(O)c3ccccc3oc2=O)[nH]c1=O				10%		Activity (HepG2 [2]): inactive
COc1ccc(C2CC(c3c(O)c4ccccc4oc3=O)=NN2C(N)=S)cc1 (stereo not given)			Active	13.7%	18.1	
N#Cc1c(-c2ccco2)cc(-c2c(O)c3ccccc3oc2=O)nc1N			Active	7.4%	10	
COc1cc(-c2cc(-c3c(O)c4ccccc4oc3=O)[nH]c(=O)c2C#N)cc(OC)c1OC	0.192	15.67	inactive			
